Reference: patent publication US20040005537A1, “Method of identifying toxic agents using differential gene expression” (priority 2000, published 2004)

Legend:
[1] = grouping used to generate the distinguishing gene profiles; cited from earlier work
rat heart tissue = experiment: GENECALLING differential gene expression analysis after dosing of serotonin modulating agents; type: in vivo, Sprague Dawley rats
Experimental: Control animals received sterile water or canola oil. The animals were sacrificed 24 hours following the last dose. Liver tissue was dissected from the animals, and total RNA was recovered from the dissected tissue. cDNA was prepared and the resulting samples were processed through using GENECALLING™ differential expression analysis as described in U.S. Pat. No. 5,871,697 and in Shimkets et al., Nature Biotechnology 17:798-803 (1999). The contents of these patents and publications are incorporated herein by reference in their entirety.
Thousands of gene fragments were initially found to be differentially expressed in rat heart tissue in response to serotonin modulating agents in. Genes fragments whose expression levels were modulated greater than ±1.5-fold were selected for further analysis.
Column 6 of Table 1, entitled “Function”, lists the type of classification assigned for the protein, based on its function. The 210 single nucleic acid sequences identified herein, are referred to herein as CARDIOTOX 1-210.

CN1C[C@H](C(=O)N[C@]2(C)O[C@@]3(O)[C@@H]4CCCN4C(=O)[C@H](Cc4ccccc4)N3C2=O)C[C@@H]2c3cccc4[nH]cc(c34)C[C@H]21 [dihydroergotamine]
classification as cardiotoxic or noncardiotoxic serotonin modulating agent [1]: cardiotoxic | Effects on Transcription Level: Novel gene fragment, 524 bp, 86% SI to mouse F-box protein FBX6b [AF176526] (rat heart tissue; CARDIOTOX 1): +1.3 fold | Effects on Transcription Level: Novel gene fragment, 306 bp, 91% SI to mouse low density lipoprotein receptor related protein 4 [AB013874] (rat heart tissue; CARDIOTOX 2): −1.4 fold | Effects on Transcription Level: Novel gene fragment, 540 bp, 97% SI to mouse skeletal muscle alpha-actin [X03766] (rat heart tissue; CARDIOTOX 3): +1.2 fold | Effects on Transcription Level: Novel gene fragment, 80 bp (rat heart tissue; CARDIOTOX 4): −1.4 fold | Effects on Transcription Level: Novel gene fragment, 957 bp, 99% SI to kidney injury associated moleculer HW036 [V80591] (rat heart tissue; CARDIOTOX 5): −1.4 fold | Effects on Transcription Level: Novel gene fragment, 282 bp, 85% SI to human KIAA1515 protein [AB040948] (rat heart tissue; CARDIOTOX 6): −1.2 fold | Effects on Transcription Level: Novel gene fragment, 405 bp, 88% SI to human 2-oxoglutarate dehydrogenase [D10523] (rat heart tissue; CARDIOTOX 7): +1.3 fold | Effects on Transcription Level: UCP2 (rat heart tissue; CARDIOTOX 8, GenBank AB010743): +1.0 fold | Effects on Transcription Level: Plasma membrane Ca2 + ATPase-isoform 1 (rat heart tissue; CARDIOTOX 9, GenBank J03753): −1.4 fold | Effects on Transcription Level: Novel gene fragment, 242 bp, 97% SI to mouse HSP86 heat-shock protein [X16857] (rat heart tissue; CARDIOTOX 10): +1.0 fold | Effects on Transcription Level: Novel gene fragment, 280 bp, 65% SI to human TRF1-interacting, ankyrin-related ADP-ribose polymerase [AF082556] (rat heart tissue; CARDIOTOX 11): +1.3 fold | Effects on Transcription Level: Novel gene fragment, 348 bp, 88% SI to mouse Sec61 protein complex gamma subunit [U11027] (rat heart tissue; CARDIOTOX 12): +1.4 fold | Effects on Transcription Level: Novel gene fragment 553 bp, 93% SI to mouse Sid329 [AB024984] (rat heart tissue; CARDIOTOX 13): +1.2 fold | Effects on Transcription Level: Kruppel-like transcription factor (rat heart tissue; CARDIOTOX 14, GenBank AB020759): +1.2 fold | Effects on Transcription Level: Ribosomal protein L3 (rat heart tissue; CARDIOTOX 15, GenBank X62166): +1.4 fold | Effects on Transcription Level: Glucose-regulated protein (GRP) 75 (rat heart tissue; CARDIOTOX 16, GenBank S78556): +1.2 fold | Effects on Transcription Level: Immunoglobulin heavy chain binding protein (BiP) (rat heart tissue; CARDIOTOX 17, GenBank M14050): +1.2 fold | Effects on Transcription Level: Membrane-spannining proteoglycan NG2 (rat heart tissue; CARDIOTOX 18, GenBank X56541): −1.4 fold | Effects on Transcription Level: Novel gene fragment, 1294 bp, 96% SI to mouse Sui 1 (elF) homolog [AF129888] (rat heart tissue; CARDIOTOX 19): +1.1 fold | Effects on Transcription Level: Novel gene fragment, 723 bp, 85% SI to human translation initiation factor elF3 p40 subunit [U54559] (rat heart tissue; CARDIOTOX 20): +1.2 fold | Effects on Transcription Level: Novel gene fragment, 1324 bp, 76% SI to human flavoprotein subunit of complex II [D30648] (rat heart tissue; CARDIOTOX 21): +1.3 fold | Effects on Transcription Level: Novel gene fragment, 852 bp, 81% SI to human vacuolar proton-ATPase subunit M9.2 [Y15286] (rat heart tissue; CARDIOTOX 22): +1.4 fold | Effects on Transcription Level: Novel gene fragment, 178 bp, 91% SI to mouse myosin light chain-2 isoform MLC-2a [S70785] (rat heart tissue; CARDIOTOX 23): +1.2 fold | Effects on Transcription Level: Novel gene fragment, 167 bp, 90% SI to mouse Rab20 [X80332] (rat heart tissue; CARDIOTOX 24): +1.2 fold | Effects on Transcription Level: Novel gene fragment, 1070 bp, 80% SI to human muscle-specific protein [AF249873] (rat heart tissue; CARDIOTOX 25): +1.2 fold | Effects on Transcription Level: Novel gene fragment, 1143 bp, 82% SI to human sarcoma amplified sequence (SAS) [U01160] (rat heart tissue; CARDIOTOX 26): +1.4 fold | Effects on Transcription Level: Novel gene fragment, 74 bp,75% SI to human secreted protein [X30160] (from patent database)/[X97578] (from patent database)/potential cytokine) (rat heart tissue; CARDIOTOX 27): +1.4 fold | Effects on Transcription Level: Novel gene fragment, 408 bp, 90% SI to human CGI-07 protein [AF132941] (rat heart tissue; CARDIOTOX 28): +1.2 fold | Effects on Transcription Level: Novel gene fragment, 618 bp, 95% SI to rat progression related cDNA, ZNPE-120 3′ end partial sequence [patent database X90805] (rat heart tissue; CARDIOTOX 29): +1.0 fold | Effects on Transcription Level: Novel gene fragment, 717 bp (rat heart tissue; CARDIOTOX 30): +1.2 fold | Effects on Transcription Level: Novel gene fragment, 546 bp (rat heart tissue; CARDIOTOX 31): −1.0 fold | Effects on Transcription Level: Novel gene fragment, 920 bp, 91% SI to human HSPC061 [AF161546] (rat heart tissue; CARDIOTOX 32): +1.3 fold | Effects on Transcription Level: Novel gene fragment, 203 bp, 92% SI to rabbit sarcoplasmic reticulum glycoprotein [J04480] (rat heart tissue; CARDIOTOX 33): −1.1 fold | Effects on Transcription Level: Novel gene fragment, 178 bp, 68% SI to mouse IgG receptor (beta-Fc-gamma-RII)[M63159] (rat heart tissue; CARDIOTOX 34): +1.2 fold | Effects on Transcription Level: Ribosomal protein L6 (rat heart tissue; CARDIOTOX 35, GenBank X87107): +1.4 fold | Effects on Transcription Level: CAP2 protein (adenylyl cyclase-associated protein 2) (rat heart tissue; CARDIOTOX 36, GenBank U31935): +1.2 fold | Effects on Transcription Level: Alpha-platelet-derived growth factor receptor (rat heart tissue; CARDIOTOX 37, GenBank M63837): −1.0 fold | Effects on Transcription Level: Rab GD1 alpha protein (rat heart tissue; CARDIOTOX 38, GenBank X74402): −1.1 fold | Effects on Transcription Level: PKC-zeta-interacting protein (rat heart tissue; CARDIOTOX 39, GenBank Y08355): +1.2 fold | Effects on Transcription Level: ERK or MAP kinase (rat heart tissue; CARDIOTOX 40, GenBank X65198): +1.4 fold | Effects on Transcription Level: Peroxisomal multifunctional enzyme type II (rat heart tissue; CARDIOTOX 41, GenBank U37486): +1.2 fold | Effects on Transcription Level: HBP23 (heme-binding protein 23 kDa) (rat heart tissue; CARDIOTOX 42, GenBank D30035): +1.3 fold | Effects on Transcription Level: Caveolae-associated protein (rat heart tissue; CARDIOTOX 43, GenBank U90725): +1.3 fold | Effects on Transcription Level: Prenylated rab acceptor 1 (PRA1) (rat heart tissue; CARDIOTOX 44, GenBank AF025506): +1.0 fold | Effects on Transcription Level: Novel gene fragment, 337 bp, 88% SI to rabbit cardiac ryanodine receptor (RyR-2)[U50465] (rat heart tissue; CARDIOTOX 45): −2.5 fold | Effects on Transcription Level: Novel gene fragment, 81 bp, 85% SI to human titin [X90568] (rat heart tissue; CARDIOTOX 46): −2.8 fold | Effects on Transcription Level: Novel gene fragment, 428 bp, 86% SI to human titin [X90568] (rat heart tissue; CARDIOTOX 47): −1.7 fold | Effects on Transcription Level: Novel gene fragment, 374 bp, 88% SI to human titin [X90568] (rat heart tissue; CARDIOTOX 48): −5.5 fold | Effects on Transcription Level: Novel gene fragment, 428 bp, 85% SI to human titin [90568] (rat heart tissue; CARDIOTOX 49): −3.8 fold | Effects on Transcription Level: Novel gene fragment, 1216 bp, 93% SI to mouse mircotubule-associated protein (MAP) 1B protein [AF115776] (rat heart tissue; CARDIOTOX 50): −1.5 fold | Effects on Transcription Level: Novel gene fragment, 1115 bp, 83% SI to human KIAA0549 protein [AB011121] (rat heart tissue; CARDIOTOX 51): −1.5 fold | Effects on Transcription Level: Novel gene fragment, 153 bp (rat heart tissue; CARDIOTOX 52): −1.7 fold | Effects on Transcription Level: Novel gene fragment, 89 bp, 93% SI to human putative glialblastoma cell differentiation-related protein (GBDR1) [AF068195] (rat heart tissue; CARDIOTOX 53): +1.5 fold | Effects on Transcription Level: Rho-associated kinase beta (rat heart tissue; CARDIOTOX 54, GenBank U61266): −2.6 fold | Effects on Transcription Level: Adenylate kinase 3 (rat heart tissue; CARDIOTOX 55, GenBank D13062): +1.5 fold | Effects on Transcription Level: Amyloid beta-peptide binding protein (rat heart tissue; CARDIOTOX 56, GenBank AF049878): +1.7 fold | Effects on Transcription Level: Mitochondrial adenine nuleotide translocator (rat heart tissue; CARDIOTOX 57, GenBank D12771): +1.8 fold | Effects on Transcription Level: Novel gene fragment, 710 bp, 94% SI to mouse chromatin structural protein homolog Supt5 hp (Supt5 h)[U88539] (rat heart tissue; CARDIOTOX 58): +2.8 fold | Effects on Transcription Level: Novel gene fragment, 186 bp, 66% SI to human N-acetylglucosaminyltransferase 1 (GlcNAc-TI)[M55621] (rat heart tissue; CARDIOTOX 60): −1.5 fold | Effects on Transcription Level: Novel gene fragment, 238 bp, 95% SI to mouse MAP kinase-activated protein kinase 2 [X76850] (rat heart tissue; CARDIOTOX 61): −1.5 fold | Effects on Transcription Level: Novel gene fragment, 173 bp, 70% SI to G protein-coupled receptor kinase GRK4 [X97568] (rat heart tissue; CARDIOTOX 62): −7.2 fold | Effects on Transcription Level: Novel gene fragment, 133 bp, 77% SI to human apoptosis related protein hSARP3 [patent database: V19114] (rat heart tissue; CARDIOTOX 63): −2.5 fold | Effects on Transcription Level: Novel gene fragment, 477 bp, 98% SI to peroxisomal phytanoyl-CoA hydroxylase (PHYH) [AF121345] (rat heart tissue; CARDIOTOX 64): +8.0 fold | Effects on Transcription Level: Novel gene fragment, 413 bp, 95% SI to mouse dihydrolipoamide dehydrogenase (Dld) [U73445] (rat heart tissue; CARDIOTOX 65): +2.2 fold | Effects on Transcription Level: Novel gene fragment, 726 bp, 76% SI to human succinate dehydrogenase flavoprotein subunit (SDH) [L21936] (rat heart tissue; CARDIOTOX 66): −3.6 fold | Effects on Transcription Level: Novel gene fragment, 440 bp, 92% SI to mouse cytochrome c oxidase Vllc [X52940] (rat heart tissue; CARDIOTOX 67): +4.1 fold | Effects on Transcription Level: Novel gene fragment, 276 bp, 80% SI to human titin [X90568] (rat heart tissue; CARDIOTOX 68): −6.5 fold | Effects on Transcription Level: Novel gene fragment, 149 bp, 70% SI to human titin [X90568] (rat heart tissue; CARDIOTOX 69): +8.0 fold
